IC50 data for 21 molecules are collected here from patent US11136296B2, “Substituted N-arylethyl-2-arylquinoline-4-carboxamides and use thereof” (Bayer Aktiengesellschaft, priority 2017, dated 2021).

pIC50: −log10 of the molar value.

Sequence of FP receptor (P43088 whole entry): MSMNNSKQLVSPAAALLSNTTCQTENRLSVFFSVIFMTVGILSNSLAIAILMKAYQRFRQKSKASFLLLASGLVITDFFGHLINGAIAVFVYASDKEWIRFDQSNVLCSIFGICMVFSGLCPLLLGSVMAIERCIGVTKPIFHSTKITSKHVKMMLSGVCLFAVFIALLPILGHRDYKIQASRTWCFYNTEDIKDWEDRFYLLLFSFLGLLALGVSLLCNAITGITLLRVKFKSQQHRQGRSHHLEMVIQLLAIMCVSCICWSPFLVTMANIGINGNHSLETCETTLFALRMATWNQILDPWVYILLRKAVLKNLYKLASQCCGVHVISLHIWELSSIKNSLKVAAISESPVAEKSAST

This assay concerns the target FP receptor (Homo sapiens (Human), UniProt P43088). Nature of the assay: In vitro test of inhibition of human FP receptor activity (PGF2α-induced calcium flux in FP-expressing CHEM1 cells). Conditions: PGF2α-induced (2 nM) calcium flux in FP-expressing CHEM1 cells; some as mean values from multiple determinations. It counts as cell-based. The source says:
Table 1 below lists the IC50 values from this assay for individual working examples of the invention (some as mean values from multiple independent individual determinations): […]
For orientation: pIC50 means the IC50 on a negative log10 scale, so that one unit is a factor of ten. Regarding `Cc1c(-c2ccccc2)nc2ccc(Br)cc2c1C(=O)NCC(C)(CCCC(=O)O)c1ccccc1` (racemic) [Example 243, (+/−)-6-{[(6-Bromo-3-methyl-2-phenylquinolin-4-yl)carbonyl]amino}-5-methyl-5-phenylhexanoic Acid], the pIC50 was 7.51.
With `Cc1c(-c2ccccc2)nc2ccc(Br)cc2c1C(=O)NCC(C)(CC(=O)O)c1ncccc1Cl` (single isomer, unassigned; (+)) [Example 86, (+)-4-{[(6-Bromo-3-methyl-2-phenylquinolin-4-yl)carbonyl]amino}-3-(3-chloropyridin-2-yl)-3-methylbutanoic Acid] the figure was 6.62; with `Cc1c(-c2ccccc2)nc2ccc(Br)cc2c1C(=O)NCC(CCC(=O)O)c1c(Cl)ccc(Cl)c1Cl` (single isomer, unassigned; (+)) [Example 235, (+)-5-{[(6-Bromo-3-methyl-2-phenylquinolin-4-yl)carbonyl]amino}-4-(2,3,6-trichlorophenyl)pentanoic Acid], 7.49; with `Cc1c(-c2ccccc2)nc2ccc(Br)cc2c1C(=O)NCC(C)(C(=O)O)c1cccc(C(F)(F)F)c1` (racemic) [Example 41, (+/−)-3-{[(6-Bromo-3-methyl-2-phenylquinolin-4-yl)carbonyl]amino}-2-methyl-2-[3-(trifluoromethyl)phenyl]propanoic Acid], 6.89.
Then `COc1cc(F)ccc1C(C)(CNC(=O)c1c(C)c(-c2ccccc2)nc2ccc(Br)cc12)CC(=O)O` (single isomer, unassigned; (+)) [Example 139, (+)-4-{[(6-Bromo-3-methyl-2-phenylquinolin-4-yl)carbonyl]amino}-3-(4-fluoro-2-methoxyphenyl)-3-methylbutanoic Acid], with 7.55; and `Cc1c(-c2ccccc2)nc2ccc(Br)cc2c1C(=O)NCC(C)(CC(=O)O)c1ccccc1F` (single isomer, unassigned; (+)) [Example 115, (+)-4-{[(6-Bromo-3-methyl-2-phenylquinolin-4-yl)carbonyl]amino}-3-(2-fluorophenyl)-3-methylbutanoic Acid], with 7.51.
Then `Cc1c(-c2ccccc2)nc2ccc(Br)cc2c1C(=O)NCC(CCC(=O)O)c1c(F)cccc1Cl` (racemic) [Example 157, (+/−)-5-{[(6-Bromo-3-methyl-2-phenylquinolin-4-yl)carbonyl]amino}-4-(2-chloro-6-fluorophenyl)pentanoic Acid], with 8.43.
Turning to `COc1c(F)cc(F)cc1C(C)(CNC(=O)c1c(C)c(-c2ccccc2)nc2ccc(Br)cc12)CC(=O)O` (single isomer, unassigned; (-)) [Example 137, (−)-4-{[(6-Bromo-3-methyl-2-phenylquinolin-4-yl)carbonyl]amino}-3-(3,5-difluoro-2-methoxyphenyl)-3-methylbutanoic Acid], the pIC50 was 6.36.
Then `COc1ccc(F)cc1C(C)(CNC(=O)c1c(C)c(-c2ccccc2)nc2ccc(Br)cc12)CC(=O)O` (racemic) [Example 132, (+/−)-4-{[(6-Bromo-3-methyl-2-phenylquinolin-4-yl)carbonyl]amino}-3-(5-fluoro-2-methoxyphenyl)-3-methylbutanoic Acid], with 7.49; and `COc1cccnc1C(CNC(=O)c1c(C)c(-c2ccccc2)nc2ccc(Br)cc12)CC(=O)O` (racemic) [Example 108, (+/−)-4-{[(6-Bromo-3-methyl-2-phenylquinolin-4-yl)carbonyl]amino}-3-(3-methoxypyridin-2-yl)butanoic Acid], with 7.11; and `Cc1c(-c2ccccc2)nc2ccc(Br)cc2c1C(=O)NCC(C(=O)O)c1ccc(F)cc1` (single isomer, unassigned) [Example 11, 3-{[(6-Bromo-3-methyl-2-phenylquinolin-4-yl)carbonyl]amino}-2-(4-fluorophenyl)propanoic Acid], with 6.33.
With `Cc1c(-c2ccccc2)nc2ccc(Br)cc2c1C(=O)NCC(C)(CCCC(=O)O)c1ccccc1Cl` (racemic) [Example 240, (+/−)-6-{[(6-Bromo-3-methyl-2-phenylquinolin-4-yl)carbonyl]amino}-5-(2-chlorophenyl)-5-methylhexanoic Acid] the figure was 7.62; with `Cc1c(-c2ccccc2)nc2ccc(Br)cc2c1C(=O)NCC(CC(=O)O)c1c(Cl)cccc1Cl` (single isomer, unassigned) [Example 79, 4-{[(6-Bromo-3-methyl-2-phenylquinolin-4-yl)carbonyl]amino}-3-(2,6-dichlorophenyl)butanoic Acid], 6.85.
In the case of `Cc1c(-c2ccccc2)nc2ccc(Br)cc2c1C(=O)NCC(CCC(=O)O)c1cc(F)cc(F)c1F` (single isomer, unassigned) [Example 233, 5-{[(6-Bromo-3-methyl-2-phenylquinolin-4-yl)carbonyl]amino}-4-(2,3,5-trifluorophenyl)pentanoic Acid], the negative logarithm of the IC50 (pIC50) is 7.60.
Then `Cc1c(-c2ccccc2)nc2ccc(Br)cc2c1C(=O)NCC(C(=O)O)c1cccc(Cl)c1` (single isomer, unassigned; (+)) [Example 49, (+)-3-{[(6-Bromo-3-methyl-2-phenylquinolin-4-yl)carbonyl]amino}-2-(3-chlorophenyl)propanoic Acid], with 7.16; and `Cc1cccc(C(CNC(=O)c2c(C)c(-c3ccccc3)nc3ccc(Br)cc23)C(=O)O)c1` (single isomer, unassigned; (+)) [Example 52, (+)-3-{[(6-Bromo-3-methyl-2-phenylquinolin-4-yl)carbonyl]amino}-2-(3-methylphenyl)propanoic Acid], with 7.15.
Then `COc1cccc(F)c1C(CNC(=O)c1c(C)c(-c2ccccc2)nc2ccc(Br)cc12)C(=O)O` (single isomer, unassigned; (-)) [Example 57, (−)-3-{[(6-Bromo-3-methyl-2-phenylquinolin-4-yl)carbonyl]amino}-2-(2-fluoro-6-methoxyphenyl)propanoic Acid], with 6.68; and `Cc1c(-c2ccccc2)nc2ccc(Br)cc2c1C(=O)NCC(CCC(=O)O)c1cccc(F)c1Cl` (single isomer, unassigned; (-)) [Example 185, (−)-5-{[(6-Bromo-3-methyl-2-phenylquinolin-4-yl)carbonyl]amino}-4-(2-chloro-3-fluorophenyl)pentanoic Acid], with 8.41.
With `Cc1c(-c2ccccc2)nc2ccc(Br)cc2c1C(=O)NCC(C)(CC(=O)O)c1ccccn1` (single isomer, unassigned; (+)) [Example 118, (+)-4-{[(6-Bromo-3-methyl-2-phenylquinolin-4-yl)carbonyl]amino}-3-methyl-3-(pyridin-2-yl)butanoic Acid] the figure was 6.55; with `Cc1c(-c2ccccc2)nc2ccc(Br)cc2c1C(=O)NCC(C)(C(=O)O)c1ncccc1Cl` (single isomer, unassigned) [Example 28, 3-{[(6-Bromo-3-methyl-2-phenylquinolin-4-yl)carbonyl]amino}-2-(3-chloropyridin-2-yl)-2-methylpropanoic Acid], 7.00.
On to `COc1cccc(C(CNC(=O)c2c(C)c(-c3ccccc3)nc3ccc(Br)cc23)C(=O)O)c1` (single isomer, unassigned; (+)) [Example 46, (+)-3-{[(6-Bromo-3-methyl-2-phenylquinolin-4-yl)carbonyl]amino}-2-(3-methoxyphenyl)propanoic Acid], for which the pIC50 was 6.64.
